{6-FAM} = 6-carboxyfluorescein label; {Dabcyl} = Dabcyl quencher

The target of data set [1] is T1, α-thrombin (Homo sapiens, UniProt P00734).
T1 construct: Human oa-thrombin (M.W. ˜36.7 kDa); purchased Haematologic Technologies Inc. (Essex Junction, Vt.)
As to conditions: stated as known property; cited from earlier work.

Data set [2] deals with T1, α-thrombin. The data set is described as follows: Fluorescence anisotropy of TAMRA-labeled aptamer on binding α-thrombin. Particulars: aptamer/α-thrombin 1:1. How it is done: (§1) Fluorescence measurements were performed on a Fluorolog-3 spectrofluorometer (Jobin Yvon Inc., Edison, N.J.). For FRET-based assays, the fluorescence of 6-FAM was monitored with an excitation wavelength of 488 mn and an emission wavelength of 515 nm. For anisotropy-based experiments, the fluorescence of TAMRA was monitored with 555 nm as the excitation and 580 mn as the emission wavelength. Slit widths were varied to yield the best signals. All measurements were carried out in a 100 μL cuvette. In the aptamer/thrombin binding experiments, a very small volume of α-thrombin at a high concentration was added to an aptamer solution in the cuvette to make a molar ratio of aptamer and thrombin 1:1, and the fluorescence signals were recorded before and after the addition. […]
where the subscripts V and H refer to the orientation (vertical or horizontal) of the polarizers for the intensity measurements, with the first subscript indicating the position of the excitation polarizer and the second for the emission polarizer. G is the G-factor of the spectrofluorometer, which is calculated as G=IHV/IHH. […] For a certain dye, the G-factor would be measured and used throughout the experiments that used the same dye. […] For TAMRA, all intensities were measured at an emission wavelength of 580 nm with an excitation wavelength of 555 nm. […]
On the technique in general: Fluorescence polarisation rises when a labelled molecule tumbles more slowly, as on binding a larger partner.

A further data set has as its target T2, thrombin (Homo sapiens, UniProt P00734).
T2 construct: Human oa-thrombin (M.W. ˜36.7 kDa); purchased Haematologic Technologies Inc. (Essex Junction, Vt.)
The data set can be described thus: Kinetic studies of competitive assays (order of incubation, concentration dependence). The data set is classed as binding. As to conditions: 100 nM FQ-15Ap, 100 nM thrombin, 500 nM HirF, 5° C., 6-FAM fluorescence. How it is done: Experiments were conducted in a 100 μL cuvette in the spectrofluorometer. While the detection system was running, the reaction samples were quickly mixed together. Data were recorded from the point of mixing to when the signal reached the plateau and stabilized. The reaction was regarded completed when the signal was at the plateau. […] The temperatures of reactions were maintained using a RTE-111 water bath/circulator (Neslab Instruments, Inc., Newington, N.H.).
In order to evaluate the possibilities of such false negatives in the assays, a comparison of the reaction rates of aptamer and prey proteins with thrombin were conducted. One direct way to conduct the comparison is to change the order the aptamer and the prey protein are incubated with thrombin. In one experiment, the prey protein was incubated with thrombin first and then the aptamer was used to displace the prey protein from the thrombin/protein complex. In another experiment, the order of adding aptamer and prey protein to thrombin was reversed. […]
Another indirect method was also used to study the effects of aptamer on thrombin/protein interactions. […] Different concentrations of AT3 were added to thrombin/T-15Ap incubation solution and the anisotropy of the aptamer was monitored as AT3 would displace T-15Ap.

The target of data set [3] is T1, α-thrombin. The data set can be described thus: FRET-based signaling aptamer binding to α-thrombin (6-FAM quenching). As to conditions: 100 nM aptamer, 500 nM α-thrombin.
Source text: Dye-labeled aptamers were obtained from Integrated DNA Technologies, Inc. (Coralville, Iowa). The sequences of the 15mer and 27mer thrombin-aptamer are 5′-GGT TGG TGT GGT TGG-3′ (SEQ ID NO 1), and 5′-ACCCGTGGTAGGGTAGGATGGGGTGGT-3′ (SEQ ID NO 2) respectively. For FRET-based assays, both aptamers were dual-labeled with 6-FAM at the 5′ end and Dabcyl at the 3′ end. For fluorescence anisotropy assays, both aptamer sequences were labeled with only TAMRA at the 3′ end. A control 15mer aptamer was labeled with only 6-FAM at the 3′ end. All aptamers were purified with HPLC. […]
as §1, with “Slit widths were varied to yield the best signals. All measurements were carried out in a 100 μL cuvette.” left out

Data set [4] concerns the target T1, α-thrombin. Particulars: reported value used for the calculation; read-out: reported 15mer aptamer-thrombin Kd/AT; cited from earlier work.

As to “5′-ACCCGTGGTAGGGTAGGATGGGGTGGT-3′ (DNA ACCCGTGGTAGGGTAGGATGGGGTGGT; chemistry not given here) [27Ap]”, in the data set with α-thrombin [1], the “capability to inhibit the enzymatic activity of thrombin” value was “does not”.

For “5′-GGT TGG TGT GGT TGG-(TAMRA)-3′ [T-15Ap]”, at α-thrombin [2], the “increase of anisotropy on mixing with α-thrombin” value is given as “more than 30%”.

With “5′-(6-FAM)-GGT TGG TGT GGT TGG-(Dabcyl)-3′ (DNA GGTTGGTGTGGTTGG; DNA, 5' {6-FAM}, 3' {Dabcyl}, backbone not given here) [FQ-15Ap, 15mer thrombin aptamer dual-labeled with 6-FAM at the 5′ end and Dabcyl at the 3′ end]”, the “kinetic profile depending on order of incubation with thrombin” value with thrombin is reported as “aptamer replacing HirF was even slower than HirF replacing aptamer”. Moreover, in the data set with α-thrombin [3] (room temperature, 50 mM NaCl buffer), the “drop of 6-FAM fluorescence when excess α-thrombin was added” value was “about 55%”.

5′-GGT TGG TGT GGT TGG-3′ [15Ap]: the Kd with α-thrombin [4] is 75 nM. Also, the “capability to inhibit the enzymatic activity of thrombin” value in the data set with α-thrombin [1] was “has the protein-inhibition capability”.

With “5′-(6-FAM)-ACCCGTGGTAGGGTAGGATGGGGTGGT-(Dabcyl)-3′ [FQ-27Ap]”, at α-thrombin [3], the “6-FAM fluorescence change upon addition of α-thrombin” value is “decreased 6-FAM fluorescence”.

Values taken from patent US20090208936A1, “IDENTIFICATION OF MOLECULAR INTERACTIONS AND THERAPEUTIC USES THEREOF” (Univeristy of Florida Research Foundations Inc., priority 2005, published 2009).
